Like-named read-outs stand apart in the source and are kept apart here.
Columns and labels:
MDA-MB-231 mammospheres [1] = experiment: Viability of MDA-MB-231 mammospheres, Alamar Blue assay (Table 1); assay type: cell-based; details: read-out: IC50 (μM), growth of MDA-MB-231 mammospheres
MCF-7 = experiment: cells; assay type: cell-based; details: read-out: IC50 (μM) MCF-7 72 h
Procedure: (§1) Cells were seeded in 96-well plates and maintained for 14-16 hours, then were treated with dimethylsulfoxide (DMSO) or test compound at various concentrations (i.e., 0.312, 1.25, 5, 20 μM) for 72 hrs. The cells were then washed with phosphate buffer saline (PBS) twice, added a medium containing 3-(4,5-dimethylthiazol-2-yl)-2,5-diphenyltetrazolium bromide (MTT) at a final concentration of 0.5 mg/mL, and incubated for 4 hr at 37° C. in a humidified incubator containing 5% CO2 in air. Cells having functional succinate dehydrogenase of mitochondria would convert MTT to formazan. Then, the medium was replaced with 100 μL of DMSO for 30 min at room temperature, and the 96-well plate was read by an ELISA reader at 550 nm to get the absorbance density values. The IC50 values of death cell lines were calculated accordingly.
(§2) The Ru^TEN complexes of Example 1 were evaluated for their anti-proliferative properties in two breast cancer cell lines, namely, MCF-7 and MDA-MB-231 cells via MTT assay. […] MCF-7 is a chemotherapy-responsive breast cancer cell line of luminal subtype with high expression of estrogen receptor (ER), whereas MDA-MB-231 is a triple negative breast cancer (TNBC) or basal-like breast cancer cell ine. TNBC is defined as highly invasive cancer that lacks expression of ER, progesterone receptor (PR) and Her-2; it has one of the worst outcomes among all subtypes of breast cancers. The aggressive nature of TNBC may be related to the presence of breast cancer stem cells within the tumor; therefore, MDA-MB-231 cells are often used as a model of mammary cancer stem cells.
(§3) The cytotoxicity of Ru^TEN complexes of Example 1 was compared to that of cisplatin or oxaliplatin, which were known to induce their anticancer effects by the mode of action different from ER stress. Three CSC-selective organic compounds, salinomycin, etoposide and abamectin, were also used for comparison. Briefly, MCF-7 and MDA-MB-231 cells were respectively treated with increasing concentrations of compounds of interest for 24 or 72 hrs and then the cell viability was measured.

MDA-MB-231 = experiment: Anti-proliferative activity (MTT assay), MDA-MB-231; assay type: cell-based
Procedure: as §1, §2, §3

MDA-MB-231 mammospheres [2] = experiment: Cytotoxicity in MDA-MB-231 mammospheres (Table 2); assay type: cell-based; details: read-out: IC50 (μM) MDA-MB-231 mammospheres 72 h
MCF-7 mammospheres = experiment: Mammosphere formation assay, MCF-7; assay type: cell-based; details: for Number of MCF-7 mammospheres / Size (μm) of MCF-7 mammospheres: primary mammospheres grown 96 hr, incubated with compound 72 hrs, >50 μm analyzed
Procedure: (§4) Since the breast cancer stem cells formed a mass of colonies in the form of floating spheres without attaching to a surface of a plate, the size and number of the masses were observed by a mammosphere formation assay to determine a cancer-stem-cell-specific effect.
(§5) Single-cell suspension was cultured at a density of 1,000 to 15,000 cells/well using a MammoCult™ Human Medium kit (Stemcell Technologies Inc Vancouver, CA), and the spherical cells were counted and observed under a microscope.
(§6) The mammosphere assay is based on the concept that when cells proliferate in three-dimensional spheroid structures, only cancer cells with stem-like characteristics are able to evade anoikis.

MDA-MB-231 mammospheres [3] = experiment: Mammosphere formation assay, MDA-MB-231 primary; assay type: cell-based; details: for Number of MDA-MB-231 mammospheres / Size (μm) of MDA-MB-231 mammospheres: primary mammospheres grown 96 hr, incubated with compound 72 hrs, >50 μm analyzed; for decrease in number of MDA-MB-231 mammospheres / decrease in size of MDA-MB-231 mammospheres: versus control
Procedure: as §4, §5, §6

[4] = system: MDA-MB-231 secondary mammospheres; experiment: Secondary mammosphere formation (self-renewal), MDA-MB-231; assay type: cell-based; details: for Number of MDA-MB-231 secondary mammospheres / Size (μm) of MDA-MB-231 secondary mammospheres: from drug-treated primary mammospheres, grown in drug-free conditions for 7 days; for propensity to form secondary mammospheres: single cells from drug-treated primary mammospheres, 7 days drug-free, FIG. 2
Procedure: To this purpose, drug-treated primary MDA-MB-231 mammospheres were dissociated into single cell suspensions and incubated for 7 days in ultralow attachment drug-free conditions.

MDA-MB-231 mammospheres [5] = experiment: Invasion / dispersion of spheroids into 3D collagen; assay type: cell-based; details: cells incubated with compound 72 hr, FIG. 4
Description: CSCs are associated with highly invasive phenotype and it is believed that this subset of cancer cells gives rise to metastases. In order to monitor the dissemination of MCF-7 and MDA-MB-231 breast cancer spheroids, the spheroids were embedded into three-dimensional (3D) collagen scaffold using Aim Biotech 3D cell culture chips. Collagen with spheroids was introduced into the central region of the microfluidic system where it polymerized via thermal cross-linking. Cell culture media was introduced into media channels forcing spheroids to move through collagen towards the media.
Thus, whether Ru^TEN complexes and salinomycin affected the invasive properties of MDA-MB-231 spheroids was then investigated. To this purpose, MDA-MB-231 monolayer cells were incubated with compounds of interest (e.g., Ru^TEN complexes of Examplel or salinomycin) for 72 hr, then the delamination was allowed to proceed for over 28 hr. Results are depicted in FIG. 4.

[6] = system: human hepatocellular carcinoma LM3 xenografts; experiment: Hepatocellular carcinoma LM3 xenograft model; assay type: in vivo, athymic NCr nude mice; details: all doses tested, FIG. 8
Procedure: (§7) Hepatocellular carcinoma LM3 cells (5×10^4 cells/20 μL) or breast cancer MDM-BA-231 cells (5×10^4 cells/20 μL) were implanted subcutaneously in the flanks of athymic NCr nude mice. A total of 40 male NCr nude mice (8 weeks or older weighing 20-24 g or more) were used for the tumor xenografts. The tested compounds (e.g., Ru^TEN 1, Ru^TEN 3, or salinomycin) were intraperitoneally administered at the dose of […] twice per week. Tumor volume was determined by image analysis. The mice in the control group received corresponding injection of 0.1% DMSO. For tumor-bearing NCr nude mice during the 4-weeks (or 28 days) experiment, the % body weight changes refer to: (the total weight on reading day/the total weight on day treatment started)×100. All mice were sacrificed at the end of the experiment (i.e., by the end of 28 days), and tissues including lung, liver, tumor, heart, brain, kidneys, spleen and colon were harvested, and checked for any sign of cancer metastasis.

[7] = system: ALDHbright subpopulation of MDA-MB-231 cells; experiment: ALDEFLUOR assay (ALDH activity); assay type: cell-based; details: versus control, FIG. 3
Procedure: The cells were stained with […] bodipy-aminoacetaldehyde (BAAA), and then cultured at 37° C. for 45 minutes. An ALDH1 inhibitor, diethyl aminobenzaldehyde (DEAB), was used as the negative control. The stained cells were assayed using BD FACS Aria III. In this case, the positive fluorescent ALDH1-expressed cells (ALDH+) were detected in a green fluorescent channel (520 to 540 nm).
While CD44+/CD24−/low phenotype has often been associated with breast CSC/progenitor cell features, yet there is no correlation between the presence of CD44+/CD24−/low cells and clinical outcome and formation of distant metastases. It is the presence of aldehyde dehydrogenase (ALDH) bright cells which separates highly tumorigenic CD44+/CD24−/low/ALDHbright population from non-tumorigenic cells. Unlike CD44+/CD24−/low, ALDH is a predictor of metastasis and is associated with a poor clinical outcome. The main role of ALDH enzymes is the detoxification of aldehydes generated in various metabolic processes into carboxylic acids. However, several ALDH isoforms are involved in retinoic acid signaling and this particular function was linked to the “stemness” of CSCs. The functional activity of ALDHs can be accurately determined by ascertaining the cellular conversion of […] (BAAA) into a fluorescent molecule BODIPY-aminoacetate (BAA). ATP-binding cassette (ABC)-transporter inhibitors in the assay buffer prevent the efflux of BAA from the cells, resulting in the accumulation of BAA in cytoplasm.

[8] = system: human MD-MBA-231 breast cancer xenografts; experiment: Breast cancer MDA-MB-231 xenograft model; assay type: in vivo, athymic NCr nude mice; details: doses tested, FIG. 11
Procedure: as §7
Results are depicted in FIGS. 9 to 11.

[9] = Acute toxicity, tolerated dose in Balb/c mice; assay type: in vivo
Procedure: In this example, Ru^TEN3 was subjected to in vivo studies with Balb/c mice. Various treatment regimens were explored to define the optimally tolerated dose of Ru^TEN3 in vivo. […] The body weight changes were recorded.

[10] = Ru biodistribution in tumor-bearing mice; assay type: in vivo; details: FIG. 6
Description: The Ru biodistribution in tumor-bearing mice treated with Ru^TEN3 was also investigated.

[11] = 24 h, MTT, read-out: IC50 (μM) MDA-MB-231 24 h
[12] = 72 h, MTT, read-out: IC50 (μM) MDA-MB-231 72 h

Molecule | IC50 (MDA-MB-231 mammospheres [1]) [µM] | IC50 (MCF-7; 72 h, MTT) [µM] | IC50 (MDA-MB-231; [11]) [µM] | IC50 (MDA-MB-231; [12]) [µM] | IC50 (MDA-MB-231 mammospheres [2]; 72 h) [µM] | Number of MCF-7 mammospheres (MCF-7 mammospheres) | Size (μm) of MCF-7 mammospheres (MCF-7 mammospheres) [μm] | Number of MDA-MB-231 mammospheres (MDA-MB-231 mammospheres [3]) | Size (μm) of MDA-MB-231 mammospheres (MDA-MB-231 mammospheres [3]) [μm] | decrease in number of MDA-MB-231 mammospheres (MDA-MB-231 mammospheres [3]) [%] | decrease in size of MDA-MB-231 mammospheres (MDA-MB-231 mammospheres [3]) [%] | Number of MDA-MB-231 secondary mammospheres [4] | Size (μm) of MDA-MB-231 secondary mammospheres [4] [μm] | propensity to form secondary mammospheres [4] | dispersion of cells into collagen after 4 hr (MDA-MB-231 mammospheres [5]) | dispersion of cells into collagen after 28 hr / entire incubation period (MDA-MB-231 mammospheres [5]) | body weight of LM3 tumor-bearing mice [6] | decrease in number of MCF-7 mammospheres (MCF-7 mammospheres; versus control) [%] | body weight / toxicity in MDA-MB-231 tumor-bearing mice [8] | other results
CC(C)c1cc(C(C)C)cc(C(C)C)c1.COc1ccc([N+]2=Cc3ccc4ccccc4[n+]3[Ru-]2[Cl])cc1.[Cl-] [Ru^TEN1, [(η6-1,3,5-triisopropybenzene)RuCl(4-methoxy-N-(2-quinolinyl-methylene)-aniline)]Cl] | 2.2 | 0.68 ± 0.23 | 1.2 ± 0.1 | 0.28 ± 0.1 | 1.4 ± 0.1 | 238 ± 86 | 130 ± 15 | 103 ± 41 | 93 ± 29 | 20 | 18 | 102 ± 28 | 69 ± 3 | drastically reduced propensity to form secondary mammospheres | did not exhibit significant dispersion | only slight dispersion | neither Ru^TEN1 nor Ru^TEN3 had caused lost in body weight | – | – | –
CC[C@@H](C(=O)[C@@H](C)[C@@H](O)[C@H](C)[C@@H]1O[C@@H]([C@@H](CC)C(=O)O)CC[C@@H]1C)[C@H]1O[C@]2(C=C[C@@H](O)[C@]3(CC[C@@](C)([C@H]4CC[C@](O)(CC)[C@H](C)O4)O3)O2)[C@H](C)C[C@@H]1C [Saliomycin, salinomycin] | – | – | – | – | – | 176 ± 73 | 117 ± 21 | 87 ± 28 | 84 ± 25 | 30 | 30 | 224 ± 74 | 82 ± 8 | only slight changes in size and number of mammospheres | did not exhibit significant dispersion | only slight dispersion | – | 33 | low toxicity | IC50 (MCF-7; Homo sapiens, MCF7, 72 h): 0.51 ± 0.03 µM; IC50 (MDA-MB-231; Homo sapiens, MDA-MB-231, 24 h, read-out: IC50 (μM) MDA-MB-231 24 h): 31 ± 4 µM; IC50 (MDA-MB-231; Homo sapiens, MDA-MB-231, 72 h, read-out: IC50 (μM) MDA-MB-231 72 h): 0.56 ± 0.09 µM; IC50 (MDA-MB-231 mammospheres [2]; Homo sapiens, MDA-MB-231, 72 h): 8.3 ± 2.4 µM; decrease in size of MCF-7 mammospheres (MCF-7 mammospheres; versus control): 9%; reduction of ALDHbright sub-population [7]: 89%
[(η6-1,3,5-triisopropybenzene)RuCl(3-chloro-N-(2-quinolinylmethylene)-aniline)]Cl [Ru^TEN3] | 2.7 | 4.4 ± 0.4 | 4.5 ± 0.8 | 1.5 ± 0.3 | 1.7 ± 0.3 | 183 ± 32 | 122 ± 16 | 50 ± 21 | 76 ± 19 | 35 | 60 | 81 ± 9 | 67 ± 4 | drastically reduced propensity to form secondary mammospheres | – | did not migrate from the spheroids | neither Ru^TEN1 nor Ru^TEN3 had caused lost in body weight | 30 | low toxicity | body weight and condition ([9]; 5 μmol/kg intraperitoneally twice a week for 33 days): did not demonstrate any weight loss; body weight and condition ([9]; 10 μmol/kg intraperitoneally twice a week for 33 days): did not demonstrate any weight loss; body weight and condition ([9]; 20 μmol/kg intraperitoneally twice a week): experienced severe pain, stopped moving, thus were euthanized; Ru accumulation in tissues [10]: highest Ru accumulation was observed in spleen and liver, followed by kidney and colon; Ru content in the brain [10]: very low
